Laboratory results from patent US20260217698A1 (BEYANG THERAPEUTICS CO., LTD., priority 2022, published 2026).
Converted amounts (≈) assume the structure as drawn.

Tests used:
EGFR = biological target: T1, EGFR (Homo sapiens, UniProt P00533); test: Kinase inhibition, Mobility Shift Assay/IMAP, EGFR; type: biochemical
T1 construct: purchased Carna 08-115
How it was run: (§1)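 Substrate conversion (phosphorylated vs non-phosphorylated) read by mobility shift on Caliper EZ Reader II and converted to % inhibition relative to no-enzyme and DMSO controls. IC50 fitted from % inhibition versus log compound concentration.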

VEGFR2 = VEGFR2 (Homo sapiens, UniProt P35968); test: Kinase inhibition, Mobility Shift Assay/IMAP, VEGFR2; type: biochemical; design: purchased Carna 08-191
VEGFR2, sequence (P35968 790-1356 limits assumed): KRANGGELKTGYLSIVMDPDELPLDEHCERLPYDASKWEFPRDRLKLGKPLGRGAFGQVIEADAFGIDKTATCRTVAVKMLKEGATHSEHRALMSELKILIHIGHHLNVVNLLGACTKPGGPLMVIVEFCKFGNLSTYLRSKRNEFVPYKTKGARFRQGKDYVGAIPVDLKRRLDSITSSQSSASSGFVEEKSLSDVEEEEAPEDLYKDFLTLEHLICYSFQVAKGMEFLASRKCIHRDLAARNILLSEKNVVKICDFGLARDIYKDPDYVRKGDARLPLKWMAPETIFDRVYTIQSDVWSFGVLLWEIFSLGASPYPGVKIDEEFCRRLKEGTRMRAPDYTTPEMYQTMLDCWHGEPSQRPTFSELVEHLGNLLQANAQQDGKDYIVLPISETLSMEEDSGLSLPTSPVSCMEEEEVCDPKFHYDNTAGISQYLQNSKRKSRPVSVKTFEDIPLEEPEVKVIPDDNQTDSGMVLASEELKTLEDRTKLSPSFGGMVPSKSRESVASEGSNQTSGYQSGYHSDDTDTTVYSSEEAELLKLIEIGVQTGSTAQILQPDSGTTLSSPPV
How it was run: as §1

TIE2 = biological target: T2, TIE2 (Homo sapiens, UniProt Q02763); test: Kinase inhibition, Mobility Shift Assay/IMAP, TIE2; type: biochemical
T2 construct: purchased BPS 40270
T2 sequence (Q02763 23-1124): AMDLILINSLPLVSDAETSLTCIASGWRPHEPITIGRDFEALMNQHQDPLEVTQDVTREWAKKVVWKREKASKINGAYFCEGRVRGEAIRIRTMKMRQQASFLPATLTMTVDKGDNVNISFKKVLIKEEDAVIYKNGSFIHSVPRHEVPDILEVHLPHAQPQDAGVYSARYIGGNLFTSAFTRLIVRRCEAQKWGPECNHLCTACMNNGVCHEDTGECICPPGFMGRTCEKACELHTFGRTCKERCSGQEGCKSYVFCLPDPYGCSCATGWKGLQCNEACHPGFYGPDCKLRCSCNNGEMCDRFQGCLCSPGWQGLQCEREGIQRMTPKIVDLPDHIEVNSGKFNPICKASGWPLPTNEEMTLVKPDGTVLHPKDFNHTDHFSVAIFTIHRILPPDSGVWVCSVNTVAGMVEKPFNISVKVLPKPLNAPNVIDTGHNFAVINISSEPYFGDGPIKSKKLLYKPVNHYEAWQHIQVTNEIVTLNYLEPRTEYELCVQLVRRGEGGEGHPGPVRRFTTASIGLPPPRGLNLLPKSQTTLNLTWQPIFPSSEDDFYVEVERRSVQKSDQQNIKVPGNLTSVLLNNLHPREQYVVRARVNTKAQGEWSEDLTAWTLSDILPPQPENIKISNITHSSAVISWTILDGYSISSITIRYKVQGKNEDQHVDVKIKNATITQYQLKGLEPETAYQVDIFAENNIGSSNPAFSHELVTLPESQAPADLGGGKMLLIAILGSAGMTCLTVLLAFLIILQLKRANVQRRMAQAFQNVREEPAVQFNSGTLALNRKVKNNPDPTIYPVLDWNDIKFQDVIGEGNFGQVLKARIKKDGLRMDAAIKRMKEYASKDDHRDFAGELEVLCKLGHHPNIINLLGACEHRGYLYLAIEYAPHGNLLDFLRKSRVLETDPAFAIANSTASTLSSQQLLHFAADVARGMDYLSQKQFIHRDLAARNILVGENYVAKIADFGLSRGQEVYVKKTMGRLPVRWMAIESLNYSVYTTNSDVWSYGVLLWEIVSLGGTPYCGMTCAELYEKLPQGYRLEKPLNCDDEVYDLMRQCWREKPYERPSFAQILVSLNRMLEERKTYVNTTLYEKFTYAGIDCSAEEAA
How it was run: as §1

melanin = test: Binding capacity of compounds to melanin; type: in vitro ADME, cuttlefish (Sepia officinalis); details: cuttlefish (Sepia officinalis), melanin suspension (1 mg/mL); 1 mg/mL melanin in PBS pH 7.4, 2 μM compound, 2 h at 37° C.; read-out: Fu % (percentage of free drug)
How it was run: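 Compound (2 μM final) incubated with washed Sepia melanin (1 mg/mL, PBS pH 7.4) 2 h at 37° C with shaking; PBS with 0.1% BSA served as blank. Supernatants quantified by LC-MS/MS; bound fraction Fb derived from melanin versus blank concentration.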

VEGFR1 = biological target: T3, VEGFR1 (Homo sapiens, UniProt P17948); test: Kinase inhibition, Mobility Shift Assay/IMAP, VEGFR1; type: biochemical
T3 construct: purchased Invitrogen PR6731B
T3 sequence (P17948 27-1338): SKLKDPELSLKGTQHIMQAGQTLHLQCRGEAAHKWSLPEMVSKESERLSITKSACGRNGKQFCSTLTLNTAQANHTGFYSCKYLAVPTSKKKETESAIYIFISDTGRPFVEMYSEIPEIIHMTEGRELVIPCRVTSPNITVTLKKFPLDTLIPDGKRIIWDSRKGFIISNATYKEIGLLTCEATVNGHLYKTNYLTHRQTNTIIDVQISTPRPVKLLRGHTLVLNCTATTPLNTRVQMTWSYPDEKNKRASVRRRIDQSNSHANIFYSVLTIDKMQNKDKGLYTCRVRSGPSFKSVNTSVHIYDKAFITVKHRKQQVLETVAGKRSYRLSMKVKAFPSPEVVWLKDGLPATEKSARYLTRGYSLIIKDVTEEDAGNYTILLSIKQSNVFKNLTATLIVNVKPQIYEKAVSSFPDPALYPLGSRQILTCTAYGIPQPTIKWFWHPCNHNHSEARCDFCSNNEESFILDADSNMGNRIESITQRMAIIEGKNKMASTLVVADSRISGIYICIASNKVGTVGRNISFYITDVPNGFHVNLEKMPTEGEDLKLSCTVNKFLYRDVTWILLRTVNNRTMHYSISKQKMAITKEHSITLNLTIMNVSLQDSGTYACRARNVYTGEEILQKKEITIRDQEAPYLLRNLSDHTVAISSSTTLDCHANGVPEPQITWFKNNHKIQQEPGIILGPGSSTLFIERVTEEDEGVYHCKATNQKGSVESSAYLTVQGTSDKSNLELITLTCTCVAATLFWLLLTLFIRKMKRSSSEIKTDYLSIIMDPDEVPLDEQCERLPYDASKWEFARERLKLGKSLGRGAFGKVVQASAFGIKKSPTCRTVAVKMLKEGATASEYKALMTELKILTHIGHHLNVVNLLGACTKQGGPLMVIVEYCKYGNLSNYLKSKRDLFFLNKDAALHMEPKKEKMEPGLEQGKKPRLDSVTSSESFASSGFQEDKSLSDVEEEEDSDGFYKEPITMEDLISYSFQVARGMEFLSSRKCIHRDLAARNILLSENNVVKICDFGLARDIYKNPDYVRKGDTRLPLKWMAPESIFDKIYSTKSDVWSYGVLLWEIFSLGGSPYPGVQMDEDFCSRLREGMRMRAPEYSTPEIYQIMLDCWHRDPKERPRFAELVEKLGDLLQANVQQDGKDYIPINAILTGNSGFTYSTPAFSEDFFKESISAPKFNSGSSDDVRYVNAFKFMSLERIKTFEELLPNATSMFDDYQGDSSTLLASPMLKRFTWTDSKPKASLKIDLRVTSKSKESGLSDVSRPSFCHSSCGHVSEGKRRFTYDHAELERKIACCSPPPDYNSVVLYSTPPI
How it was run: as §1

VEGFR3 = biological target: T4, VEGFR3 (Homo sapiens, UniProt P35916); test: Kinase inhibition, Mobility Shift Assay/IMAP, VEGFR3; type: biochemical
T4 construct: purchased Invitrogen PV4129
T4 sequence (P35916 25-1363): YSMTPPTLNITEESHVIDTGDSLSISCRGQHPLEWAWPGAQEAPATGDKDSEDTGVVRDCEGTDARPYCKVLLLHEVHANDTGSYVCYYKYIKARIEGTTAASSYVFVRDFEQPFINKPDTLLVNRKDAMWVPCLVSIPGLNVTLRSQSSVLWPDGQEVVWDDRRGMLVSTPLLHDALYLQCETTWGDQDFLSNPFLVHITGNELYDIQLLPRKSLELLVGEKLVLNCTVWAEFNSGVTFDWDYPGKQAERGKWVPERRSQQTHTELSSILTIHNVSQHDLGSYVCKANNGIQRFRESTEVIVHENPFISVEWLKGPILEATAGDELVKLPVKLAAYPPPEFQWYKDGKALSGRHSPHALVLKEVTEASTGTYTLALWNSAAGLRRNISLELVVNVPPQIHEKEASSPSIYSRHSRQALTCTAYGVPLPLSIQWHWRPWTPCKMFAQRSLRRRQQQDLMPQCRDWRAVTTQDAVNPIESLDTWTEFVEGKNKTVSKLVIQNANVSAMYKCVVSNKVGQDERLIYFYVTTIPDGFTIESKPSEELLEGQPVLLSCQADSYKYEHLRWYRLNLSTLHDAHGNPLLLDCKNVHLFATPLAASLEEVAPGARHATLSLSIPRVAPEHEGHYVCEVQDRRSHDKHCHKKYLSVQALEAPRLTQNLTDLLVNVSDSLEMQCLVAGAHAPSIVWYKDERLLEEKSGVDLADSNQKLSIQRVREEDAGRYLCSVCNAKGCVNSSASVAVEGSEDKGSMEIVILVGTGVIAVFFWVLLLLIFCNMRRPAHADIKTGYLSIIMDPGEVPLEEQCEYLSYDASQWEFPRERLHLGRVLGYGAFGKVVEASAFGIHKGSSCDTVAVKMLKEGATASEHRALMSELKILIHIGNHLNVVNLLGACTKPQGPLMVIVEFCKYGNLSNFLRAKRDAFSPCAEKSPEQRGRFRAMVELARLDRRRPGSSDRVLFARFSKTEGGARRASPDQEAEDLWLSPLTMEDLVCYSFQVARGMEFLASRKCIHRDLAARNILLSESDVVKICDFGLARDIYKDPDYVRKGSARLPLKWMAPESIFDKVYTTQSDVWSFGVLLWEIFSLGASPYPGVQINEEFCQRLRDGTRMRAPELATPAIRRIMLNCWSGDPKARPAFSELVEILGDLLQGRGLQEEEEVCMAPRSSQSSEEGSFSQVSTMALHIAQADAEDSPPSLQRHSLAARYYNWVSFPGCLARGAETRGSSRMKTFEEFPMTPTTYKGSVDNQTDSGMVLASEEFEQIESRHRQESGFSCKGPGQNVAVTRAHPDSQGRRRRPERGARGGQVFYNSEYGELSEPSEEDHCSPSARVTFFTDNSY
How it was run: as §1

HUVEC cells = test: Inhibition of VEGF-induced HUVEC cell proliferation, CellTiter Glo; type: cell-based; details: Homo sapiens, 20 ng/ml VEGF, 72 hours
Source text: In this experiment, human umbilical vein endothelial cells (HUVEC, Lonza) were used. HUVEC cells are primary cells isolated from umbilical veins. This cell line is a model system to study the functions of endothelial cells. Endothelial cell proliferation in response to VEGF is crucial to the pathological angiogenesis associated with conditions such as tumor development and ocular neovascular diseases.
In this assay, a luciferase bioluminescence assay (CellTiter GLU™, Promega) is used to determine the inhibitory activity of the compounds against VEGF-induced HUVEC cell proliferation and viability. CellTiter GLO™ is a homogeneous method for quantifying the count of viable cells in culture based on ATP, an indicator of metabolically active cells. In this assay, the compound was incubated with HUVEC cells for 72 hours, and then the inhibitory activity of the resulting compound against VEGF-induced HUVEC cell proliferation was measured on the En Vision plate reader.
With the RPMI-1640 medium (plus 5% FBS, 1% Penicillin-Streptomycin) used for the HUVEC cell proliferation experiment, add a cell suspension to a 96-well plate at 100 μl per well, i.e., 4000 HUVEC cells/well, and incubate them overnight in a 5% CO2 incubator at 37° C. (serum starvation). After 24 hours, add 96 μl of the experimental medium to the cell wells, and then add 2 μl of the compound to the cell wells; and after 1 hour following the addition of the compound, add 2 μl of 2 μg/ml VEGF to the cell wells. Add 0.1% DMSO and 20 ng/ml VEGF to cell wells to serve as high-reading control wells. Take cell-free wells with only medium as low-reading control wells. […] After 72 hours of incubation of the cell plate in the incubator, hold the cell plate to be tested at room temperature and discard 100 μl of medium per well. Add 100 μl of CTG reagent (CellTiter Glo kit) per well, oscillate the cell plate in a fast oscillator for 3 minutes, and keep the cell plate at room temperature in the dark for 30 minutes. Read the chemiluminescence signal value with the Envision instrument.
X indicates the log value of compound concentration, Y indicates the inhibition rate (% inhibition), Top indicates the readout of the high-reading control well.

[1] = Solubility test in buffer, LC-MS; type: physicochemical; details: aqueous buffer, thermodynamic from solid, room temperature, shaking 8 h, pH not given (method: pH 2.0, 6.5, 7.4)
Experimental: Accurately weigh 3 portions of about 2 mg of the compound, and add appropriate volumes of buffers with the pHs of 2.0, 6.5, and 7.4 respectively to obtain a solution with a concentration of 2 mg/mL. After sonication for 10 min, fix them on a shaker and shaking for 8 h at room temperature. After shaking, sonicate for 10 min and centrifuge for 15 min at 13,000 rpm. Pipette 0.1 mL of supernatant into a new tube, shake and rinse it with 5 mL, and discard the liquid. Transfer 0.5 mL of the supernatant again to a new tube, centrifuge it for 15 min at 13,000 rpm, then collect the supernatant (if necessary, dilute with water) and analyze it by LC-MS. The sample concentrations at 3~5 points are subjected to fitting and reticle for quantification.

T1 sequence (P00533 669-1210 limits assumed): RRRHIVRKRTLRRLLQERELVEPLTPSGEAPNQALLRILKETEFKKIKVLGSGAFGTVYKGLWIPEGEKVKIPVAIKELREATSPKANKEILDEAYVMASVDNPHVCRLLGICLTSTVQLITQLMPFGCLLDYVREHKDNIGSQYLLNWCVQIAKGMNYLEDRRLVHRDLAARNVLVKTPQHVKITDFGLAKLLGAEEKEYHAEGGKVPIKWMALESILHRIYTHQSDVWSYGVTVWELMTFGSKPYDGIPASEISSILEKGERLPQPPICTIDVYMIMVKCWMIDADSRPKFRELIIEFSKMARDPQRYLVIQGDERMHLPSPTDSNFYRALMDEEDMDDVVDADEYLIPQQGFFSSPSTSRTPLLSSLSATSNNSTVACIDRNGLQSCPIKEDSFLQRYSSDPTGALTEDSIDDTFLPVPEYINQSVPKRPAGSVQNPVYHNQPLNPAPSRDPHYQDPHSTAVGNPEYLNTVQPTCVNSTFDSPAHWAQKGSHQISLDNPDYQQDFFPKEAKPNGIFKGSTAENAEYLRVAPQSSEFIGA

For `CN1CCC(CCNC(=O)Nc2snc(OCc3ccc4c(c3)OCC4)c2C(N)=O)CC1` [Compound T053, 3-((2,3-dihydrobenzofuran-6-yl)methoxy)-5-(3-(2-(1-methylpiperidin-4-yl)ethyl)ureido)isothiazole-4-carboxamide], the IC50 (EGFR) was 11400 nM, the IC50 (VEGFR2) was 10.4 nM and the IC50 (TIE2) was 258 nM. It also gave a fraction unbound at 2 h, 2 μM (melanin) of 0.0225, an IC50 (VEGFR1) of 14.7 nM and an IC50 (VEGFR3) of 17.4 nM. For the same compound, the IC50 (HUVEC cells) was 69.7 nM.

For `COc1cc(COc2nsc(NC(=O)NCCCCN3CC[C@@H](F)C3)c2C(N)=O)cc(OC)c1` [Compound T064, (R)-3-((3,5-dimethoxybenzyl)oxy)-5-(3-(4-(3-fluoropyrrolidin-1-yl)butyl)ureido)isothiazole-4-carboxamide], the IC50 (EGFR) was over 60000 nM, the IC50 (VEGFR2) was 43.3 nM and the fraction unbound at 2 h, 2 μM (melanin) was 0.0269. The solubility at 8 h [1] was 400 µg/mL (≈ 807 µM) and the IC50 (HUVEC cells) was 79.2 nM.

With `NC(=O)c1c(OCc2cc3c(cc2F)CCO3)nsc1NC(=O)NCCCCN1CCCC1` [Compound T071, 3-((5-fluoro-2,3-dihydrobenzofuran-6-yl)methoxy)-5-(3-(4-(pyrrolidin-1-yl)butyl)ureido)isothiazole-4-carboxamide] the IC50 (EGFR) was 15200 nM, the IC50 (VEGFR2) was 4.36 nM and the IC50 (TIE2) was 147 nM. The fraction unbound at 2 h, 2 μM (melanin) was 0.0231, the IC50 (VEGFR1) was 13.4 nM and the IC50 (VEGFR3) was 18.7 nM. For the same compound, the IC50 (HUVEC cells) was 74.5 nM.

With `CN1CCC(CCNC(=O)Nc2snc(OCc3cc4c(cc3F)CCO4)c2C(N)=O)CC1` [Compound T073] the IC50 (EGFR) was 4550 nM, the IC50 (VEGFR2) was 2.73 nM and the IC50 (VEGFR1) was 5.99 nM. It also gave an IC50 (VEGFR3) of 10.7 nM and an IC50 (HUVEC cells) of 26.9 nM.

Compound `NC(=O)c1c(OCc2cc3c(cc2F)CCO3)nsc1NC(=O)NCCCCN1CC[C@@H](F)C1` [Compound T079, 3-[(5-fluoro-2,3-dihydrobenzofuran-6-yl)methoxy]-5-[4-[(3R)-3-fluoropyrrolidin-1-yl]butylcarbamoylamino]isothiazole-4-carboxamide] has an IC50 (EGFR) of 5140 nM, an IC50 (VEGFR2) of 4.47 nM and an IC50 (TIE2) of 115 nM. For the same compound, the fraction unbound at 2 h, 2 μM (melanin) was 0.0526, the IC50 (VEGFR1) was 11.8 nM and the IC50 (VEGFR3) was 21.4 nM. It also gave an IC50 (HUVEC cells) of 57.7 nM.

`NC(=O)c1c(OCc2cc3c(cc2F)CCO3)nsc1NC(=O)NCCCCN1CC[C@H](O)C1` [Compound T090, 3-[(5-fluoro-2,3-dihydrobenzofuran-6-yl)methoxy]-5-[4-[(3S)-3-hydroxypyrrolidin-1-yl]butylcarbamoylamino]isothiazole-4-carboxamide] showed an IC50 (EGFR) of 13900 nM, an IC50 (VEGFR2) of 3.55 nM and a fraction unbound at 2 h, 2 μM (melanin) of 0.025. The IC50 (VEGFR1) was 7.73 nM, the IC50 (VEGFR3) was 13 nM and the IC50 (HUVEC cells) was 46.9 nM.

`NC(=O)c1c(OCc2cc3c(cc2F)CCO3)nsc1NC(=O)NCCC1CCN(CCF)CC1` [Compound T103, 3-[(5-fluoro-2,3-dihydrobenzofuran-6-yl)methoxy]-5-[2-[1-(2-fluoroethyl)-4-piperidyl]ethylcarbamoylamino]isothiazole-4-carboxamide] showed an IC50 (EGFR) of 5490 nM, an IC50 (VEGFR2) of 4.96 nM and an IC50 (TIE2) of 94.5 nM. For the same compound, the fraction unbound at 2 h, 2 μM (melanin) was 0.0229 and the IC50 (HUVEC cells) was 66 nM.

Work on `COc1ccc(F)c(COc2nsc(NC(=O)NCCCCN3CC[C@@H](F)C3)c2C(N)=O)c1F` [Compound T111, 3-[(2,6-difluoro-3-methoxy-phenyl)methoxy]-5-[4-[(3R)-3-fluoropyrrolidin-1-yl]butylcarbamoylamino]isothiazole-4-carboxamide] yielded an IC50 (EGFR) of 19800 nM, an IC50 (VEGFR2) of 15.1 nM and an IC50 (TIE2) of 223 nM. For the same compound, the fraction unbound at 2 h, 2 μM (melanin) was 0.0449 and the IC50 (HUVEC cells) was 32 nM.

`COc1ccc(F)c(COc2nsc(NC(=O)NCCC3CCN(CCF)CC3)c2C(N)=O)c1F` [Compound T112, 3-[(2,6-difluoro-3-methoxy-phenyl)methoxy]-5-[2-[1-(2-fluoroethyl)-4-piperidyl]ethylcarbamoylamino]isothiazole-4-carboxamide] showed an IC50 (EGFR) of 10200 nM, an IC50 (VEGFR2) of 14.6 nM and an IC50 (TIE2) of 129 nM. For the same compound, the fraction unbound at 2 h, 2 μM (melanin) was 0.0222 and the IC50 (HUVEC cells) was 36 nM.

In the case of `COc1ccc(F)c(COc2nsc(NC(=O)NCCCCN3CC[C@H](F)C3)c2C(N)=O)c1F` [Compound T113, 3-[(2,6-difluoro-3-methoxy-phenyl)methoxy]-5-[4-[(3S)-3-fluoropyrrolidin-1-yl]butylcarbamoylamino]isothiazole-4-carboxamide], the IC50 (EGFR) is reported as 11800 nM, the IC50 (VEGFR2) is reported as 14.7 nM and the IC50 (TIE2) is reported as 163 nM. It also gave a fraction unbound at 2 h, 2 μM (melanin) of 0.0268 and an IC50 (HUVEC cells) of 27 nM.

`NC(=O)c1c(OCc2cc3c(cc2F)CCO3)nsc1NC(=O)NCCCCN1CC[C@H](F)C1` [Compound T115, 3-[(5-fluoro-2,3-dihydrobenzofuran-6-yl)methoxy]-5-[4-[(3S)-3-fluoropyrrolidin-1-yl]butylcarbamoylamino]isothiazole-4-carboxamide] gave an IC50 (EGFR) of 8220 nM, an IC50 (VEGFR2) of 7.2 nM and an IC50 (TIE2) of 117 nM. The fraction unbound at 2 h, 2 μM (melanin) was 0.0148 and the IC50 (HUVEC cells) was 36 nM.

Compound `NC(=O)c1c(OCc2cc3c(cc2F)CCO3)nsc1NC(=O)NCCCN1CC[C@H](F)C1` [Compound T119, 3-[(5-fluoro-2,3-dihydrobenzofuran-6-yl)methoxy]-5-[3-[(3S)-3-fluoropyrrolidin-1-yl]propylcarbamoylamino]isothiazole-4-carboxamide] has an IC50 (EGFR) of 19900 nM, an IC50 (TIE2) of 205 nM and a fraction unbound at 2 h, 2 μM (melanin) of 0.0202. For the same compound, the IC50 (HUVEC cells) was 67 nM.

With `NC(=O)c1c(OCc2cc(C(=O)NC3CC3)ccc2F)nsc1NC(=O)NCCCN1CC[C@@H](F)C1` [Compound T122, 3-[[5-(cyclopropylcarbamoyl)-2-fluoro-phenyl]methoxy]-5-[3-[(3R)-3-fluoropyrrolidin-1-yl]propylcarbamoylamino]isothiazole-4-carboxamide] the IC50 (EGFR) was 5680 nM, the IC50 (VEGFR2) was 2.55 nM and the IC50 (TIE2) was 2100 nM. For the same compound, the fraction unbound at 2 h, 2 μM (melanin) was 0.0372, the solubility at 8 h [1] was 1280 µg/mL (≈ 2450 µM) and the IC50 (HUVEC cells) was 44 nM.
